# Reference: PMC10745882, “Investigation of Drug-Interaction Potential for Arthritis Dietary Supplements: Chondroitin Sulfate, Glucosamine, and Methylsulfonylmethane” (Molecules, 2023)
# Tests used:
# CYP2E1 = tested on: CYP2E1; design: method as in PMID 20408500; details: related report; cited from earlier work
# CYP2C9 = target: T1, CYP2C9 (Homo sapiens, UniProt P11712); assay: CYP inhibition assay in human liver microsomes (LC-MS/MS cocktail), diclofenac to 4-OH-diclofenac; type: in vitro ADME
# T1 construct: Pooled human liver microsomes were purchased from BD Gentest; tissue BD Gentest; host or cells: pooled human liver microsomes
# T1 sequence (P11712 whole entry): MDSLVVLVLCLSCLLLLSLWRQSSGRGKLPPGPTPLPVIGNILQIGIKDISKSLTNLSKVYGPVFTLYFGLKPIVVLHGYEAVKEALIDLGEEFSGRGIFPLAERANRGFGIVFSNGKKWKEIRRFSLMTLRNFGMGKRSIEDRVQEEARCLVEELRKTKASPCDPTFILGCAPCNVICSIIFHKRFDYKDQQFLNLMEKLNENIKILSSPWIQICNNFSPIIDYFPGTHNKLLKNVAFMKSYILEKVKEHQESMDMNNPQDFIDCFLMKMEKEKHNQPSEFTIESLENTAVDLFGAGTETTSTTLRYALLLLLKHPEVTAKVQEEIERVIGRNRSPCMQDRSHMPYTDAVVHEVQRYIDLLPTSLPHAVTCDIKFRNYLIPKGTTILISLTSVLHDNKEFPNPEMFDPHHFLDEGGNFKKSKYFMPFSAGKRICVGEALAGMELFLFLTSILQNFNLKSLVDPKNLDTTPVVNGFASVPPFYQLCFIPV
# Method: For the experimental method, the reference method was used. Briefly, incubation mixtures were composed of 0.5 mg/mL human liver microsomes; varying concentrations of CS in DW (0.1, 0.3, 1, 3, 10, 30, 100, and 200 µM) or MSM in DW (0.1, 0.3, 1, 3, 10, 30, 100, 300, and 1000 µM) or GCS in DMSO (0.1, 0.3, 1, 3, 10, 30, 100, 300, and 1000 µM); a substrate mixture in DMSO (40 µM phenacetin for CYP1A2; 2.5 µM coumarin for CYP2A6; 80 µM bupropion for CYP2B6; 10 µM diclofenac for CYP2C9; 80 µM [±]-mephenytoin for CYP2C19; 5 µM dextromethorphan for CYP2D6; 2.5 µM midazolam and 30 µM testosterone for CYP3A4); and an NADPH generating system (NGS; 0.1 M glucose-6-phosphate, 10 mg/mL β-NADP^+, and 1 U/mL glucose-6-phosphate dehydrogenase) in a total volume of 200 µL potassium phosphate buffer (0.1 M, pH 7.4). The reaction mixture, excluding NGS, underwent pre-incubation at 37 °C for 5 min, followed by further incubation with NGS for 30 min in a water bath. Well-established selective CYP inhibitors were employed as positive controls (40 µM ketoconazole for CYP3A4, 50 µM furafyllin for CYP1A2, 10 µM quinidine for CYP2D6, 125 µM ticlopidine for CYP2C19 and CYP2B6, 10 µM 8-methoxsalen for CYP2A6, and 10 µM sulfaphenazole for CYP2C9). Post incubation, the reaction was halted by adding 50 µL ice-cold 1% formic acid acetonitrile. After centrifugation at 13,200 rpm for 5 min, the supernatant was collected from the sample and subjected to analysis via an LC-MS/MS system. All experiments were performed in triplicate.
# For the experimental method, the reference method was used. The LC-MS/MS system utilized in this study consisted of an Agilent 1260 binary pump HPLC system coupled with the Agilent 6460 Triple Quadrupole mass spectrometer (Agilent Technologies, Santa Clara, CA, USA), featuring an electrospray ionization source. Chromatographic separation was achieved using a Fortis C8 column (2.1 × 100 mm, 5.0 µm; Fortis Technologies Ltd., Neston, UK). The HPLC mobile phases comprised (A) 0.1% formic acid and (B) 0.1% formic acid in 90% acetonitrile. A gradient elution method was employed with an initial solvent B concentration of 15% and a flow rate of 0.25 mL/min. […] The total run time was 11.0 min, and the injection volume was 5 µL. Mass detection was conducted in the positive ion mode using multiple reaction monitoring (MRM). Specific MRM transitions for each analyte are detailed in Table S4.
compound,measurement,setting,value
"N[C@H]1C(O)O[C@H](CO)[C@@H](O)[C@@H]1O (stereo partly drawn) [GCS, glucosamine]",inhibitory effect on CYP2E1,CYP2E1,no inhibitory effect
same,"Remaining Activities (% of Control, n = 3)",CYP2C9; test substance 0.3 μM,115.5 ± 15.2 % of Control
same,"Remaining Activities (% of Control, n = 3)",CYP2C9; test substance 1 μM,108.7 ± 1.7 % of Control
same,"Remaining Activities (% of Control, n = 3)",CYP2C9; test substance 3 μM,109.2 ± 2.4 % of Control
same,"Remaining Activities (% of Control, n = 3)",CYP2C9; test substance 10 μM,104.0 ± 2.3 % of Control
same,"Remaining Activities (% of Control, n = 3)",CYP2C9; test substance 30 μM,105.8 ± 2.7 % of Control
same,"Remaining Activities (% of Control, n = 3)",CYP2C9; test substance 100 μM,101.2 ± 4.8 % of Control
same,"Remaining Activities (% of Control, n = 3)",CYP2C9; test substance 300 μM,97.2 ± 2.8 % of Control
same,"Remaining Activities (% of Control, n = 3)",CYP2C9; test substance 1000 μM,91.1 ± 10.1 % of Control
